Data: article PMC11875992 (Cancer research, 2025)

Experiments:
KRAS G13D = KRAS G13D (Homo sapiens, UniProt P01116, G13D); assay: cellular thermal stability assay in HCT-116 lysates, western blot; assay type: biochemical
KRAS G12C = KRAS G12C (Homo sapiens, UniProt P01116, G12C); assay: cellular thermal stability assay; assay type: cell-based
Sequence of KRAS G12C (P01116 2-186 G12C): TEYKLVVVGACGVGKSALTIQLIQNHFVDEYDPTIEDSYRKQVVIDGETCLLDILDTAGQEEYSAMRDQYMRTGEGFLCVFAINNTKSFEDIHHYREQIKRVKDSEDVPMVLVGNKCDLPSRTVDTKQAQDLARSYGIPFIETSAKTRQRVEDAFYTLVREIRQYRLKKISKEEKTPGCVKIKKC

Sequence of KRAS G13D (P01116 2-186 G13D): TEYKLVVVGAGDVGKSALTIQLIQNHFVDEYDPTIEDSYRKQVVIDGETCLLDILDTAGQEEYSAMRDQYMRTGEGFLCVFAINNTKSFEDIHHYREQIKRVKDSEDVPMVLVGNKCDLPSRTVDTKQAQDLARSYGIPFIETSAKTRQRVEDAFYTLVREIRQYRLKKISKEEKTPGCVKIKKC

EC50 (KRAS G13D): 0.45 nM
EC50 (KRAS G12C): 8.49 nM
SMILES: COc1cc(/C=C2/C(C)=C(CC(=O)NCc3ccco3)c3cc(F)ccc32)cc(OC)c1O [ADT-007, (Z)-2-(5-fluoro-1-(4-hydroxy-3,5-dimethoxybenzylidene)-2-methyl-1H-inden-3-yl)-N-(furan-2-ylmethyl)acetamide]
